In patent US20250134855A1, “CO[…] AND METHODS OF USING SAME” (LYKOS THERAPEUTICS, INC., priority 2022, published 2025):

Experiments:
[1] = molecular target: organic anion transporter (OAT1) (Homo sapiens, UniProt Q4U2R8); assay: Transporter inhibition, OAT1
[2] = test system: participants with PTSD, eating disorder symptoms; assay: EAT-26 eating disorder psychopathology before and after MDMA-AT (Phase 3 trial NCT03537014); type: in vivo, human
Description: The Eating Attitudes Test (EAT or EAT-26) is a standardized self-reported questionnaire of symptoms and concerns characteristic of eating disorders. The EAT-26 uses a six-point scale based on how often the individual engages in specific behaviors. The questions can be answered: Always, Usually, Often, Sometimes, Rarely, and Never. Completing the EAT-26 yields a “referral index” based on three criteria: 1) the total score based on the answers to the EAT-26 questions; 2) answers to the behavioral questions related to eating symptoms and weight loss, and 3) the individual's body mass index (BMI) calculated from their height and weight. In some cases, an individual can be recommended for additional care if the individual meets a “cut off” score or threshold on one or more criteria. For example, if an individual score higher than a 20, the individual should be referred to a qualified professional for potential diagnosis of an eating disorder. (See, for example, Garner, D. M., & Garfinkel, P. E. (1979). Psychological Medicine, 9, 273-279.)
Exploratory data on ED psychopathology were analyzed that were collected as part of a Phase 3 trial (trial ID: NCT03537014, which is herein incorporated by reference in its entirety), which was a double-blind randomized controlled study that compared efficacy and safety of MDMA-AT between placebo and MDMA groups for treatment of PTSD. EAT-26 was included as a pre-specified exploratory measure to assess participants' attitudes about eating and food in addition to the presence of previously undetected EDs. EAT-26 assessments were collected at baseline (visit 4) and study termination (visit 20). This self-reported questionnaire consists of 25 components, each rated on a six-point scale of 0 (Never) to 3 (Always), plus an additional component rated from 0 (Always) to 3 (Never). The […] item addresses occurrence and frequency of specific eating behaviors, such as binge eating. Scores were combined to produce a total EAT-26 score, ranging from 0 to 78, with lower values indicating fewer symptoms. Participants meeting a total cut-off score of 20 or greater are considered likely candidates for having an ED diagnosis and warrant referral to a qualified professional.
Among a total of 90 participants who were randomized and received treatment, 89 participants completed the EAT-26 assessment at baseline, and seven participants withdrew from the study and were missing follow-up data (3 MDMA, 4 placebo). A total of 82 of 90 participants (91.1%) completed both baseline and follow-up EAT-26 assessments and were included in the final analysis. This preliminary analysis of an exploratory measure included only completers of both EAT-26 scores at baseline and follow-up assessments to avoid imputation of data that would attenuate the accuracy of results. […] The baseline sample consisted of participants who were majority female (65.2%), identified as women (62.9%), non-Hispanic White or Latino (89.9%), college graduates (70.8%), and the mean (SD) age was 41.0 (12.00) years. In total, 17 participants had been prescribed sertraline, of which 8 and 9 were assigned to the MDMA and placebo treatment groups, respectively. Furthermore, 6 participants had been prescribed paroxetine, which were equally distributed between MDMA and placebo treatment groups (3 and 3, respectively). At baseline, BMI (kg/m2) scores were in the ‘normal’ range (BMI 18.5-24.9) in 56.2%, ‘overweight’ (BMI 25.0-29.9) in 28.1%, and ‘obese’ (BMI≥30) in 15.7% of participants. There were no treatment group differences in demographic variables or baseline ACE, BDI-II, CAPS-5, or lifetime C-SSRS assessments. Mean BMI (SD) was 26.0 (4.8) kg/m2 in the MDMA-AT group and 24.8 (4.2) kg/m2 in the PLAC-AT group (t=1.3, p=. 2).

[3] = molecular target: organic cation transporter (OCT1) (Homo sapiens, UniProt O15245); assay: Transporter inhibition, OCT1; details: at supratherapeutic concentrations
[4] = molecular target: MATE2-K (Homo sapiens, UniProt Q86VL8); assay: Transporter inhibition, MATE2-K
[5] = test system: human plasma proteins; details: literature (Wan Aasim 2017); cited from earlier work
[6] = molecular target: BCRP (Homo sapiens, UniProt Q9UNQ0); assay: Transporter substrate assessment, BCRP; details: not told
[7] = molecular target: OATP1B3 (Homo sapiens, UniProt Q9NPD5); assay: Transporter inhibition, OATP1B3
[8] = molecular target: MDR1 (Homo sapiens, UniProt P08183); assay: Transporter substrate assessment, MDR1
[9] = test system: dogs; assay: Daily 28-day repeated dose toxicology study, dogs; type: in vivo, dog; details: 0, 3, 9, or 15 mg/kg/day, daily 28 days
Method: Based on negative in vivo and in vitro genotoxicity studies, the carcinogenic risk of MDMA·HCl is low. No tumors were reported after daily 28-day repeated dose toxicology studies of MDMA in rats (0, 10, 50, or 100 mg/kg/day) or dogs (0, 3, 9, or 15 mg/kg/day).

[10] = test system: male rats; assay: In vivo genotoxicity (micronucleated polychromatic erythrocytes), male rats; parameters: species or system rat; details: oral, doses up to 100 mg/kg day over two days
Description: No statistically significant differences in micronucleated polychromatic erythrocytes or bone marrow cytotoxicity were observed across all dose levels.

[11] = molecular target: OAT3 (Homo sapiens, UniProt Q8TCC7); assay: Transporter inhibition, OAT3
Chain of OAT3 (Q8TCC7 whole entry): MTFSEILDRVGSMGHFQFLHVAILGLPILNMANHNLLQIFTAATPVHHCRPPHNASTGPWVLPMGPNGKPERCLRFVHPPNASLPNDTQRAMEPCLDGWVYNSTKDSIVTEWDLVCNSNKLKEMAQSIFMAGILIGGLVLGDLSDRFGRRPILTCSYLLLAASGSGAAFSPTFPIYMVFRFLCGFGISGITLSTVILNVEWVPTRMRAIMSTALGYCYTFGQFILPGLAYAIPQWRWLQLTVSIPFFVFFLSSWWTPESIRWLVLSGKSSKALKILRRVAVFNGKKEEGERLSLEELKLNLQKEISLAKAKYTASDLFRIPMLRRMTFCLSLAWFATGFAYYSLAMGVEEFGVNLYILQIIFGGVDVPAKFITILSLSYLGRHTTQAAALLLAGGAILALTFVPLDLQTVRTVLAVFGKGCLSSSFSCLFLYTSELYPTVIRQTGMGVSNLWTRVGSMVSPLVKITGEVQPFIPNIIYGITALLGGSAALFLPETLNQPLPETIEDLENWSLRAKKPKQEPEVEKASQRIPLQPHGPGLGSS

Chain of MDR1 (P08183 whole entry): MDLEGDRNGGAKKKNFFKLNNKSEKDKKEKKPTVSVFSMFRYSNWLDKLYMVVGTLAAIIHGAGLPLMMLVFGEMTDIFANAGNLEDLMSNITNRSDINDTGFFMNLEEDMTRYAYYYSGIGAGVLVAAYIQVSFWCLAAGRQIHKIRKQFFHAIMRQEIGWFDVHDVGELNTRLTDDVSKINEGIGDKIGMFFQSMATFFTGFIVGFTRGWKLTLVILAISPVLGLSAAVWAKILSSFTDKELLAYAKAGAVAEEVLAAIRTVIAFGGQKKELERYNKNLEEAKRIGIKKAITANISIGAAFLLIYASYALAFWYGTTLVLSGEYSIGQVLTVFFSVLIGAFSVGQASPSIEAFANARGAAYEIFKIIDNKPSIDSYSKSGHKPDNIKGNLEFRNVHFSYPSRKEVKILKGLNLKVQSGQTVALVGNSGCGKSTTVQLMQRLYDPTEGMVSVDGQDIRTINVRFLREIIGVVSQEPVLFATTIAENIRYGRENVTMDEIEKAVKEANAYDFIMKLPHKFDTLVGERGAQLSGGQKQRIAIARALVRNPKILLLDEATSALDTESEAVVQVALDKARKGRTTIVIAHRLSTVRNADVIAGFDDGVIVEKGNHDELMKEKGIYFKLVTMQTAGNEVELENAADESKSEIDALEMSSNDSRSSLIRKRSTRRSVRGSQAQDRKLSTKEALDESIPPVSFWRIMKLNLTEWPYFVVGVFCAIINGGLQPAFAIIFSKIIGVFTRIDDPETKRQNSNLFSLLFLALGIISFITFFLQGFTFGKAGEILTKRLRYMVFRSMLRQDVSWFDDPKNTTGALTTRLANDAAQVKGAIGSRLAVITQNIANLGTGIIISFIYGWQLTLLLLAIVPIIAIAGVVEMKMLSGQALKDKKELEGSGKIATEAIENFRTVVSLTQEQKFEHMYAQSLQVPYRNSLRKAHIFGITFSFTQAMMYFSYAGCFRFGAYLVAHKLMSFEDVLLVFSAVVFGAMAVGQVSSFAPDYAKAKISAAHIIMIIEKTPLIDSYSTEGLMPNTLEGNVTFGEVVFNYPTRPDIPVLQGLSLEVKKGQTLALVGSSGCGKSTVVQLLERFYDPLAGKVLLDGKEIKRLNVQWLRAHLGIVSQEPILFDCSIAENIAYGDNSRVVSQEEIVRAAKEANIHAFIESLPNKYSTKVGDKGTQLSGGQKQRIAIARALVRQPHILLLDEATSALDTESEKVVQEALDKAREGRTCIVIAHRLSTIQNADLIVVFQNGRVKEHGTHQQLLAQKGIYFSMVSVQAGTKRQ
Chain of OATP1B3 (Q9NPD5 whole entry): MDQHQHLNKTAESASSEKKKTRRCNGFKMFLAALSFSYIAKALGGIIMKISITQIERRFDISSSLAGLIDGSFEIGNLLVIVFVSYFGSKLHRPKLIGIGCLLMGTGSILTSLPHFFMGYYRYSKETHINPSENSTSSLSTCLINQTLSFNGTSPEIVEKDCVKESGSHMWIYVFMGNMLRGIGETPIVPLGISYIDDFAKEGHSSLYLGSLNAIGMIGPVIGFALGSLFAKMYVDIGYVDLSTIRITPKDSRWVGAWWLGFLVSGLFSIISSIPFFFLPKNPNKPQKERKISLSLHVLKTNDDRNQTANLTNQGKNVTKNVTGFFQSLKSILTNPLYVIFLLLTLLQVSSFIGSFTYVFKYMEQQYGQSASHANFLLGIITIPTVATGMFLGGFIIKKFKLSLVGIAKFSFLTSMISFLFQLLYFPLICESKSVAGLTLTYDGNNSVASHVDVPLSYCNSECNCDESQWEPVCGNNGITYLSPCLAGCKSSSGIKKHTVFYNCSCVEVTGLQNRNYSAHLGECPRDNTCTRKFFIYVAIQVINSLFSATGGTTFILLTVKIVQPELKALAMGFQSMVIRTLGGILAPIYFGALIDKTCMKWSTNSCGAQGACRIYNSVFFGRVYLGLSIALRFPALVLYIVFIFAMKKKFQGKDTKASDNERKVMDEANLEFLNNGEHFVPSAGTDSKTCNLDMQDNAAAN
Chain of organic anion transporter (OAT1) (Q4U2R8 whole entry): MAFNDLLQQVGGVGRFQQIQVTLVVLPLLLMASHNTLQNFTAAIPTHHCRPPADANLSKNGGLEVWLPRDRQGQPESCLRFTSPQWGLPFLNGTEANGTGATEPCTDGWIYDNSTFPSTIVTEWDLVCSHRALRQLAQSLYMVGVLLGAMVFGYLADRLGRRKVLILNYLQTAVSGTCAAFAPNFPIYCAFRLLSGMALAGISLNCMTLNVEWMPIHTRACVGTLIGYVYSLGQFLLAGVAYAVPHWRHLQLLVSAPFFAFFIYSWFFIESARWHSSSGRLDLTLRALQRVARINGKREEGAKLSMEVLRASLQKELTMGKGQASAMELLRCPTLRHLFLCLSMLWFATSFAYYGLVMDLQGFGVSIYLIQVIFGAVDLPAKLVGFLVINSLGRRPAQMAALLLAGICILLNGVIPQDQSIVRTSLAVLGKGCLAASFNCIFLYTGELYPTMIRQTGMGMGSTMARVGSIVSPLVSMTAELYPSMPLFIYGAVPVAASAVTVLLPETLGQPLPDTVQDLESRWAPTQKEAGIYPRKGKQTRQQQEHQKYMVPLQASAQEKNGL
Chain of organic cation transporter (OCT1) (O15245 whole entry): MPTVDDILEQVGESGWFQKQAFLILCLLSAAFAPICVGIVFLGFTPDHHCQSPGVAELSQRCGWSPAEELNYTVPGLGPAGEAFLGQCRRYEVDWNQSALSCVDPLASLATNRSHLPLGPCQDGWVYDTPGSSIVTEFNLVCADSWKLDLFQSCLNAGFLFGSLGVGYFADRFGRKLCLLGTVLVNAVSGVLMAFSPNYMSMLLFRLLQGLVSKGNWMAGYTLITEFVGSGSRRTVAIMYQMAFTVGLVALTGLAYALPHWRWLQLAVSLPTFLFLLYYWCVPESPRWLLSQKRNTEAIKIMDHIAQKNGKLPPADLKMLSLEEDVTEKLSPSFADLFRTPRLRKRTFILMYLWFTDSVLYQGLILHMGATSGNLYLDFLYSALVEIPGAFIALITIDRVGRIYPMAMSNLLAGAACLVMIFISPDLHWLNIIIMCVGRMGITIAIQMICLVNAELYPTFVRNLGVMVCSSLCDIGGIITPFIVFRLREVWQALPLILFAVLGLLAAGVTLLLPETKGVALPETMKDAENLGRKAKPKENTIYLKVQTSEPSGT
Chain of BCRP (Q9UNQ0 whole entry): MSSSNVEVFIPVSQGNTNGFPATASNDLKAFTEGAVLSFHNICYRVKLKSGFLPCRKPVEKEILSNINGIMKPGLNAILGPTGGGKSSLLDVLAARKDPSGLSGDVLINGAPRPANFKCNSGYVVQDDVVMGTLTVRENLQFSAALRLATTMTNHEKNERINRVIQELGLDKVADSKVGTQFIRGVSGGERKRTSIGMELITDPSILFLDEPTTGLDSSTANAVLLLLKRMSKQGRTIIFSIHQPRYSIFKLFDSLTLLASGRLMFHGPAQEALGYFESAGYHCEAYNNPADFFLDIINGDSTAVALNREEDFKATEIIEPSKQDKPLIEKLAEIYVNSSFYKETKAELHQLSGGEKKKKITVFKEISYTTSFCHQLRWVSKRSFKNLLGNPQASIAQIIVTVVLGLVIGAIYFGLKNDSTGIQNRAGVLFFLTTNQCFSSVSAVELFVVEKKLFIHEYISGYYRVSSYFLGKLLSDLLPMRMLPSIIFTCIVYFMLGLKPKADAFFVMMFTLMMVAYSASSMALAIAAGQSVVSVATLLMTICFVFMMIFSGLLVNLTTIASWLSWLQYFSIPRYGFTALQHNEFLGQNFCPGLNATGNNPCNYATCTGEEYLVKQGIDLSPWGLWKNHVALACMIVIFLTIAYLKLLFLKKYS
Chain of MATE2-K (Q86VL8 1-566 isoform Q86VL8-3): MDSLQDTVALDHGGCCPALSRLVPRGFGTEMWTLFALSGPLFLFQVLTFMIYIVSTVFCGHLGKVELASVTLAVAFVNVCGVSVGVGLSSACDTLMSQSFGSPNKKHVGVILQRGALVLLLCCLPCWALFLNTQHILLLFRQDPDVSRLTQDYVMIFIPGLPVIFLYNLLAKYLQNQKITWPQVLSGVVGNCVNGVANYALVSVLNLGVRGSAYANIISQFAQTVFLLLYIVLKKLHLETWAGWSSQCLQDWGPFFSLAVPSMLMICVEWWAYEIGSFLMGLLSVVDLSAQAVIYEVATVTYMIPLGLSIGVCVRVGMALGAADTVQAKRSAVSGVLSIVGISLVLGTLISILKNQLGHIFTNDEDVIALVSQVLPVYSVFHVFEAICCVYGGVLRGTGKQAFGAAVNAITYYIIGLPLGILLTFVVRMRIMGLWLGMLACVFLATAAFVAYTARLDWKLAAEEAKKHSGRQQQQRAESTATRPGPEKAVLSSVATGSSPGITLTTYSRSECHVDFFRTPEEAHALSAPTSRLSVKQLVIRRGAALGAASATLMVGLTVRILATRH

CNC(C)Cc1ccc2c(c1)OCO2 (stereo not shown) [MDMA, 3,4-methylenedioxymethamphetamine]
inhibition of OAT1 [1]: not an inhibitor | Cohen's d, EAT-26 reduction MDMA vs placebo ([2]; baseline EAT-26≥11 subset): 0.52 | RCI score, EAT-26 ([2]; baseline EAT-26≥11 subset): −2.16 | within-subject mean (SD) reduction in EAT-26 scores ([2]; baseline EAT-26≥11 subset): −9.58 (7.59) | RCI score, EAT-26 ([2]; baseline EAT-26≥20 subset): −2.83 | within-subject mean reduction in EAT-26 scores ([2]; baseline EAT-26≥20 subset): −14.08 | participants with EAT-26≥20 at follow-up ([2]; reduced from 5 (11.90%) at baseline): 2.38% | within-subject mean (SD) reduction in EAT-26 scores, baseline to follow-up ([2]; total sample): −3.04 (6.24) | Hedge's g, EAT-26 change scores MDMA vs placebo ([2]; total sample, adjusted for baseline): 0.33 | RCI score, EAT-26 ([2]; women with EAT-26≥11): −2.90 | Hedge's g, EAT-26 change scores MDMA vs. placebo ([2]; women with baseline EAT-26≥11): 0.63 | Hedge's g, EAT-26 change scores MDMA vs. placebo ([2]; women with baseline EAT-26≥20): 0.60 | RCI, change in EAT-26 score ([2]; women with baseline EAT-26≥20, group not given): −18.80 | inhibition of OCT1 [3]: inhibits | inhibition of MATE2-K [4]: not an inhibitor | bound to plasma proteins in humans [5]: 51% | substrate of BCRP [6]: not a substrate | inhibition of OATP1B3 [7]: not an inhibitor | substrate of MDR1 [8]: not a substrate | tumors [9]: No tumors | genotoxicity in vivo [10]: no signs of genotoxicity | inhibition of OAT3 [11]: not an inhibitor
